The assay concerns human Z138 mantle cell lymphoma cell line. Description: Tumor growth inhibition study in vivo, Z138 mantle cell lymphoma xenograft. Details: species or system SCID beige mice. How it is done: Cells were co-injected with Matrigel.
Experimental study protocol was reviewed and approved by local government. […] Continuous health monitoring was carried out on regular basis. Diet food (Provimi Kliba 3337) and water (acidified pH 2.5-3) were provided ad libitum.
Animals were controlled daily for clinical symptoms and detection of adverse effects.
The corresponding vehicle was administered on the same days.

For two molecules, tumor growth inhibition results are on record in patent publication US20140140988A1, “COMBINATION THERAPY OF AN AFUCOSYLATED CD20 ANTIBODY WITH A MDM2 INHIBITOR” (Roche Glycart AG, priority 2010, published 2014).

`CCOc1cc(C(C)(C)C)ccc1C1=N[C@@](C)(c2ccc(Cl)cc2)[C@@](C)(c2ccc(Cl)cc2)N1C(=O)N1CCN(CCCS(C)(=O)=O)CC1` [MDM2 inhibitor]: the tumor growth inhibition is, setting by setting: (day 35, single agent 75 mg/kg p.o. once daily, three times weekly over 18 days (FIG. 2)) 35%; (day 35, single agent 150 mg/kg p.o. once daily, three times weekly over 18 days (FIG. 3)) 78%.
Regarding “B-HH6-B-KV1 GE: afucosylated type II anti-CD20 antibody, humanized B-Ly1, glycoengineered; VH SEQ ID No.7, VL SEQ ID No. 20”, the tumor growth inhibition (day 35 after tumor cell inoculation, single agent 0.5 mg/kg i.p. q7d once weekly for 3 weeks, compared to the control group) turned out to be 59%.
